Literature values in patent US20030229057A1, “Continuous sulfatase inhibiting progestogen hormone replacement therapy” (priority 2002, published 2003).

Conditions: humans

norgestimate being converted to norelgestromin in vivo: ≥ 80%
SMILES: C#C[C@]1(OC(C)=O)CC[C@H]2[C@@H]3CCC4=CC(=NO)CC[C@@H]4[C@H]3CC[C@@]21CC (mixture of isomers) [norgestimate]
